# Measured values: ChEMBL document CHEMBL1201862, “PubChem BioAssay data set” (2004)
#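 A five-concentration, 48-hour dose response in 96-well plates underlies each endpoint, interpolated linearly between surrounding concentrations. GI50 = concentration required for 50% inhibition of growth.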 Active and inactive are the calls of the source. No stated cut-off is given here; in the data, active = GI50 up to about 1.1 µM and inactive = higher.
# Experiments:
# Test in all cases: DTP human tumour cell line panel, 48 h
# SF-295 = system: SF-295
# NCI-H522 = system: NCI-H522
# A549 = system: A549
# NCI/ADR-RES = system: NCI/ADR-RES
# UACC-257 = system: UACC-257
# NCI-H226 = system: NCI-H226
# TK-10 = system: TK-10
# SK-MEL-2 = system: SK-MEL-2
# OVCAR-5 = system: OVCAR-5
# SK-MEL-5 = system: SK-MEL-5
# MOLT-4 = system: MOLT-4
# DU-145 = system: DU-145
# 786-0 = system: 786-0
# IGROV-1 = system: IGROV-1
# NCI-H460 = system: NCI-H460
# COLO 205 = system: COLO 205
# BT-549 = system: BT-549
# CCRF-CEM = system: CCRF-CEM
# HCT-116 = system: HCT-116
# LOX IMVI = system: LOX IMVI
# SF-268 = system: SF-268
# MDA-N = system: MDA-N
# HOP-62 = system: HOP-62
# SNB-19 = system: SNB-19
# SNB-75 = system: SNB-75
# MDA-MB-435 = system: MDA-MB-435
# PC-3 = system: PC-3
# SN12C = system: SN12C
# SF-539 = system: SF-539
# OVCAR-3 = system: OVCAR-3
# OVCAR-8 = system: OVCAR-8
# MCF7 = system: MCF7
# RPMI-8226 = system: RPMI-8226
# KM12 = system: KM12
# HCC 2998 = system: HCC 2998
# SK-OV-3 = system: SK-OV-3
# HL-60 = system: HL-60
# Malme-3M = system: Malme-3M
# CAKI-1 = system: CAKI-1
# SW-620 = system: SW-620
# HCT-15 = system: HCT-15
# MDA-MB-231 = system: MDA-MB-231
# NCI-H23 = system: NCI-H23
# RXF 393 = system: RXF 393
# A498 = system: A498
# M14 = system: M14
# OVCAR-4 = system: OVCAR-4
# U-251 = system: U-251
# UO-31 = system: UO-31
# HT-29 = system: HT-29
# T47D = system: T47D
# UACC-62 = system: UACC-62
# ACHN = system: ACHN
# SR = system: SR
# Hs-578T = system: Hs-578T
# HOP-92 = system: HOP-92
# SK-MEL-28 = system: SK-MEL-28
# EKVX = system: EKVX
# K562 = system: K562
smiles,measurement,setting,value
C/C(=N\NC(N)=S)C(CN1CCCCC1)C(C1=C(O)c2ccccc2OC1)c1ccccc1 (stereo unspecified),GI50,SF-295,> 100 µM (inactive)
same,GI50,NCI-H522,> 100 µM (inactive)
same,GI50,A549,> 100 µM (inactive)
same,GI50,NCI/ADR-RES,> 100 µM (inactive)
same,GI50,UACC-257,> 100 µM (inactive)
same,GI50,NCI-H226,> 100 µM (inactive)
same,GI50,TK-10,> 100 µM (inactive)
same,GI50,SK-MEL-2,> 100 µM (inactive)
same,GI50,OVCAR-5,> 100 µM (inactive)
same,GI50,SK-MEL-5,> 100 µM (inactive)
same,GI50,MOLT-4,64 µM (inactive)
same,GI50,DU-145,> 100 µM (inactive)
same,GI50,786-0,> 100 µM (inactive)
same,GI50,IGROV-1,> 100 µM (inactive)
same,GI50,NCI-H460,> 100 µM (inactive)
same,GI50,COLO 205,> 100 µM (inactive)
same,GI50,BT-549,> 100 µM (inactive)
same,GI50,CCRF-CEM,61.1 µM (inactive)
same,GI50,HCT-116,> 100 µM (inactive)
same,GI50,LOX IMVI,> 100 µM (inactive)
same,GI50,SF-268,> 100 µM (inactive)
same,GI50,MDA-N,> 100 µM (inactive)
same,GI50,HOP-62,41 µM (inactive)
same,GI50,SNB-19,> 100 µM (inactive)
same,GI50,SNB-75,> 100 µM (inactive)
same,GI50,MDA-MB-435,> 100 µM (inactive)
same,GI50,PC-3,> 100 µM (inactive)
same,GI50,SN12C,> 100 µM (inactive)
same,GI50,SF-539,> 100 µM (inactive)
same,GI50,OVCAR-3,82.4 µM (inactive)
same,GI50,OVCAR-8,> 100 µM (inactive)
same,GI50,MCF7,> 100 µM (inactive)
same,GI50,RPMI-8226,35.2 µM (inactive)
same,GI50,KM12,> 100 µM (inactive)
same,GI50,HCC 2998,> 100 µM (inactive)
same,GI50,SK-OV-3,> 100 µM (inactive)
same,GI50,HL-60,36.1 µM (inactive)
same,GI50,Malme-3M,> 100 µM (inactive)
same,GI50,CAKI-1,> 100 µM (inactive)
same,GI50,SW-620,> 100 µM (inactive)
same,GI50,HCT-15,> 100 µM
same,GI50,MDA-MB-231,> 100 µM (inactive)
same,GI50,NCI-H23,> 100 µM (inactive)
same,GI50,RXF 393,> 100 µM (inactive)
same,GI50,A498,> 100 µM (inactive)
same,GI50,M14,> 100 µM (inactive)
same,GI50,OVCAR-4,83 µM (inactive)
same,GI50,U-251,> 100 µM (inactive)
same,GI50,UO-31,> 100 µM (inactive)
same,GI50,HT-29,> 100 µM (inactive)
same,GI50,T47D,79.6 µM (inactive)
same,GI50,UACC-62,> 100 µM (inactive)
same,GI50,ACHN,> 100 µM (inactive)
same,GI50,SR,> 100 µM (inactive)
same,GI50,Hs-578T,> 100 µM (inactive)
same,GI50,HOP-92,22.5 µM (inactive)
same,GI50,SK-MEL-28,> 100 µM (inactive)
same,GI50,EKVX,> 100 µM (inactive)
Cc1ccc(Nc2cc(=O)[nH]c(=S)[nH]2)cc1,GI50,SF-295,> 100 µM (inactive)
same,GI50,NCI-H522,> 100 µM (inactive)
same,GI50,A549,> 100 µM (inactive)
same,GI50,NCI/ADR-RES,> 100 µM (inactive)
same,GI50,UACC-257,> 100 µM (inactive)
same,GI50,NCI-H226,> 100 µM (inactive)
same,GI50,TK-10,> 100 µM (inactive)
same,GI50,SK-MEL-2,> 100 µM (inactive)
same,GI50,OVCAR-5,> 100 µM (inactive)
same,GI50,SK-MEL-5,> 100 µM (inactive)
same,GI50,MOLT-4,> 100 µM (inactive)
same,GI50,DU-145,> 100 µM (inactive)
same,GI50,786-0,> 100 µM (inactive)
same,GI50,IGROV-1,> 100 µM (inactive)
same,GI50,NCI-H460,> 100 µM (inactive)
same,GI50,COLO 205,> 100 µM (inactive)
same,GI50,BT-549,> 100 µM (inactive)
same,GI50,CCRF-CEM,> 100 µM (inactive)
same,GI50,HCT-116,> 100 µM (inactive)
same,GI50,LOX IMVI,> 100 µM (inactive)
same,GI50,SF-268,> 100 µM (inactive)
same,GI50,MDA-N,> 100 µM (inactive)
same,GI50,HOP-62,> 100 µM (inactive)
same,GI50,SNB-19,> 100 µM (inactive)
same,GI50,SNB-75,> 100 µM (inactive)
same,GI50,MDA-MB-435,> 100 µM (inactive)
same,GI50,PC-3,> 100 µM (inactive)
same,GI50,SN12C,> 100 µM (inactive)
same,GI50,SF-539,> 100 µM (inactive)
same,GI50,OVCAR-3,> 100 µM (inactive)
same,GI50,OVCAR-8,> 100 µM (inactive)
same,GI50,K562,> 100 µM (inactive)
same,GI50,MCF7,> 100 µM (inactive)
same,GI50,RPMI-8226,> 100 µM (inactive)
same,GI50,KM12,> 100 µM (inactive)
same,GI50,HCC 2998,> 100 µM (inactive)
same,GI50,SK-OV-3,> 100 µM (inactive)
same,GI50,HL-60,> 100 µM (inactive)
same,GI50,Malme-3M,> 100 µM (inactive)
same,GI50,CAKI-1,> 100 µM (inactive)
same,GI50,SW-620,> 100 µM (inactive)
same,GI50,HCT-15,> 100 µM
same,GI50,MDA-MB-231,> 100 µM (inactive)
same,GI50,NCI-H23,> 100 µM (inactive)
same,GI50,RXF 393,> 100 µM (inactive)
same,GI50,A498,> 100 µM (inactive)
same,GI50,M14,> 100 µM (inactive)
same,GI50,OVCAR-4,> 100 µM (inactive)
same,GI50,U-251,> 100 µM (inactive)
same,GI50,UO-31,> 100 µM (inactive)
same,GI50,HT-29,> 100 µM (inactive)
same,GI50,T47D,> 100 µM (inactive)
same,GI50,UACC-62,> 100 µM (inactive)
same,GI50,ACHN,> 100 µM (inactive)
same,GI50,SR,> 100 µM (inactive)
same,GI50,Hs-578T,> 100 µM (inactive)
same,GI50,HOP-92,> 100 µM (inactive)
same,GI50,EKVX,> 100 µM (inactive)
